From ChEMBL document CHEMBL5053494, “Novel halogenated arylvinyl-1,2,4 trioxanes as potent antiplasmodial as well as anticancer agents: Synthesis, bioevaluation, structure-activity relationship and in-silico studies” (Eur J Med Chem, 2021)
Calls of active or inactive are those of the source. The calls are words filed in the database; no cut-off is given here.

Tested on: Plasmodium falciparum
Assay: Antiplasmodial activity against schizont stage chloroquine-resistant Plasmodium falciparum INDO assessed as parasite killing for 3 to 6 hrs by stage specific inhibition assay relative to control
Format: functional
Parameters: scale not given: the % may be the effect or the level left
Details: time 3-6 hrs

SMILES | Activity [%]
C=C(c1ccc(Cl)cc1Cl)C1COC2(CCCC2)OO1 (configuration not stated) | 60

Tested on: Plasmodium falciparum
Assay: Antiplasmodial activity against ring stage chloroquine-resistant Plasmodium falciparum INDO assessed as percentage survival at 70 nM for 6 hrs by ring stage survival assay
Format: functional, organism-based
Details: not given

SMILES | Activity
C[C@@H]1CC[C@H]2[C@@H](C)C(=O)O[C@@H]3O[C@@]4(C)CC[C@@H]1[C@]32OO4 [ARTEMISININ] | inactive
C=C(c1ccc(OC)c(F)c1)C1COC2(OO1)C1CC3CC(C1)CC2C3 (configuration not stated) | inactive
C=C(c1ccc(Cl)cc1Cl)C1COC2(CCCC2)OO1 (configuration not stated) | inactive

Tested on: Plasmodium berghei
Assay: Antimalarial activity against Plasmodium berghei ANKA infected in Balb/c mouse assessed as suppression of parasitemia at 50 mg/kg, po administered for 4 days by microscopic analysis
Format: functional
Details: time 4 day

SMILES | Activity [%]
C=C(c1ccc(OC)c(F)c1)C1COC2(OO1)C1CC3CC(C1)CC2C3 (configuration not stated) | 100
C=C(c1ccc(Cl)cc1Cl)C1COC2(CCCC2)OO1 (configuration not stated) | 0

Tested on: not listed separately
Assay: Selectivity index, ratio of CC50 for human HEK293 cells to IC50 for antiplasmodial activity against chloroquine-resistant Plasmodium falciparum INDO
Format: toxicity
Details: HEK293 cells versus Plasmodium falciparum INDO

SMILES | selectivity ratio
C[C@@H]1CC[C@H]2[C@@H](C)C(=O)O[C@@H]3O[C@@]4(C)CC[C@@H]1[C@]32OO4 [ARTEMISININ] | 4330
C=C(c1ccc(OC)c(F)c1)C1COC2(OO1)C1CC3CC(C1)CC2C3 (configuration not stated) | 3970
C=C(c1ccc(Cl)cc1Cl)C1COC2(CCCC2)OO1 (configuration not stated) | 1350

Tested on: Plasmodium falciparum
Assay: Antiplasmodial activity against ring stage chloroquine-resistant Plasmodium falciparum Cam 3.1 R539 assessed as percentage survival at 700 nM for 6 hrs by ring stage survival assay relative to control
Format: functional
Details: not given

SMILES | Activity [%]
C[C@@H]1CC[C@H]2[C@@H](C)C(=O)O[C@@H]3O[C@@]4(C)CC[C@@H]1[C@]32OO4 [ARTEMISININ] | 20
C=C(c1ccc(OC)c(F)c1)C1COC2(OO1)C1CC3CC(C1)CC2C3 (configuration not stated) | 6
C=C(c1ccc(Cl)cc1Cl)C1COC2(CCCC2)OO1 (configuration not stated) | 20

Tested on: L02
Assay: Anticancer activity against human L02 cells assessed as cell growth inhibition measured for 72 hrs by MTT assay
Format: functional, cell-based
Details: L02, 72 h

SMILES | IC50 [µM]
C[C@@H]1CC[C@H]2[C@@H](C)C(=O)O[C@@H]3O[C@@]4(C)CC[C@@H]1[C@]32OO4 [ARTEMISININ] | 8.25
C=C(c1ccc(OC)c(F)c1)C1COC2(OO1)C1CC3CC(C1)CC2C3 (configuration not stated) | 11.9
C=C(c1ccc(Cl)cc1Cl)C1COC2(CCCC2)OO1 (configuration not stated) | 2.55

Tested on: not listed separately
Assay: Selectivity ratio of IC50 for anticancer activity against human BEAS-2B cells to IC50 for anticancer activity against human A549 cells
Format: toxicity, cell-based
Details: BEAS-2B cells versus A549 cells, read-out: Ratio IC50

SMILES | selectivity ratio
C[C@@H]1CC[C@H]2[C@@H](C)C(=O)O[C@@H]3O[C@@]4(C)CC[C@@H]1[C@]32OO4 [ARTEMISININ] | 0.76
C=C(c1ccc(OC)c(F)c1)C1COC2(OO1)C1CC3CC(C1)CC2C3 (configuration not stated) | 0.68
C=C(c1ccc(Cl)cc1Cl)C1COC2(CCCC2)OO1 (configuration not stated) | 12.2

Tested on: Plasmodium berghei
Assay: Antimalarial activity against Plasmodium berghei ANKA infected in Balb/c mouse assessed as suppression of parasitemia at 50 mg/kg, ip administered for 4 days by microscopic analysis
Format: functional
Details: time 4 day

SMILES | Activity [%]
C=C(c1ccc(OC)c(F)c1)C1COC2(OO1)C1CC3CC(C1)CC2C3 (configuration not stated) | 100
C=C(c1ccc(Cl)cc1Cl)C1COC2(CCCC2)OO1 (configuration not stated) | 100

Tested on: Plasmodium falciparum
Assay: Antiplasmodial activity against ring stage chloroquine-resistant Plasmodium falciparum Cam 3.1 R539 assessed as percentage survival at 70 nM for 6 hrs by ring stage survival assay
Format: functional
Details: not given

SMILES | Activity [%]
C[C@@H]1CC[C@H]2[C@@H](C)C(=O)O[C@@H]3O[C@@]4(C)CC[C@@H]1[C@]32OO4 [ARTEMISININ] | 50
C=C(c1ccc(OC)c(F)c1)C1COC2(OO1)C1CC3CC(C1)CC2C3 (configuration not stated) | 30
C=C(c1ccc(Cl)cc1Cl)C1COC2(CCCC2)OO1 (configuration not stated) | 100

Tested on: Plasmodium falciparum
Assay: Antiplasmodial activity against chloroquine-resistant Plasmodium falciparum INDO assessed as growth inhibition by SYBER green 1 dye based fluorescence assay
Format: functional, organism-based
Details: not given

SMILES | IC50 [µM]
C[C@@H]1CC[C@H]2[C@@H](C)C(=O)O[C@@H]3O[C@@]4(C)CC[C@@H]1[C@]32OO4 [ARTEMISININ] | 0.0066
C=C(c1ccc(OC)c(F)c1)C1COC2(OO1)C1CC3CC(C1)CC2C3 (configuration not stated) | 0.00448
C=C(c1ccc(Cl)cc1Cl)C1COC2(CCCC2)OO1 (configuration not stated) | 0.00969

Tested on: Plasmodium falciparum
Assay: Antiplasmodial activity against ring stage chloroquine-resistant Plasmodium falciparum INDO assessed as ring stage parasite killing for 0 to 6 hrs by stage specific inhibition assay relative to control
Format: functional
Parameters: scale not given: the % may be the effect or the level left
Details: time 0-6 hrs

SMILES | Activity [%]
C=C(c1ccc(OC)c(F)c1)C1COC2(OO1)C1CC3CC(C1)CC2C3 (configuration not stated) | 38
C=C(c1ccc(Cl)cc1Cl)C1COC2(CCCC2)OO1 (configuration not stated) | 66

Tested on: BEAS-2B
Assay: Anticancer activity against human BEAS-2B cells assessed as cell growth inhibition measured for 72 hrs by MTT assay
Format: functional, cell-based
Details: not given

SMILES | IC50 [µM]
C[C@@H]1CC[C@H]2[C@@H](C)C(=O)O[C@@H]3O[C@@]4(C)CC[C@@H]1[C@]32OO4 [ARTEMISININ] | 7.53
C=C(c1ccc(OC)c(F)c1)C1COC2(OO1)C1CC3CC(C1)CC2C3 (configuration not stated) | 61.2
C=C(c1ccc(Cl)cc1Cl)C1COC2(CCCC2)OO1 (configuration not stated) | 17.4

Tested on: Plasmodium falciparum
Assay: Antiplasmodial activity against artemisinin-resistant Plasmodium falciparum Cam 3.1 R539 assessed as growth inhibition by SYBER green 1 dye based fluorescence assay
Format: functional, organism-based
Details: not given

SMILES | IC50 [µM]
C[C@@H]1CC[C@H]2[C@@H](C)C(=O)O[C@@H]3O[C@@]4(C)CC[C@@H]1[C@]32OO4 [ARTEMISININ] | 0.0135
C=C(c1ccc(OC)c(F)c1)C1COC2(OO1)C1CC3CC(C1)CC2C3 (configuration not stated) | 0.0401
C=C(c1ccc(Cl)cc1Cl)C1COC2(CCCC2)OO1 (configuration not stated) | 0.0707

Tested on: Plasmodium falciparum
Assay: Antiplasmodial activity against trophozoite stage chloroquine-resistant Plasmodium falciparum INDO assessed as parasite killing for 4 to 8 hrs by stage specific inhibition assay relative to control
Format: functional, organism-based
Details: time 4-8 hrs

SMILES | Activity
C=C(c1ccc(OC)c(F)c1)C1COC2(OO1)C1CC3CC(C1)CC2C3 (configuration not stated) | Active
C=C(c1ccc(Cl)cc1Cl)C1COC2(CCCC2)OO1 (configuration not stated) | Active

Tested on: Plasmodium falciparum
Assay: Antiplasmodial activity against schizont stage chloroquine-resistant Plasmodium falciparum INDO assessed as parasite killing for 0 to 3 hrs by stage specific inhibition assay relative to control
Format: functional, organism-based
Details: time 0-3 hrs

SMILES | Activity
C=C(c1ccc(OC)c(F)c1)C1COC2(OO1)C1CC3CC(C1)CC2C3 (configuration not stated) | Active
C=C(c1ccc(Cl)cc1Cl)C1COC2(CCCC2)OO1 (configuration not stated) | Active

Tested on: Plasmodium falciparum
Assay: Antiplasmodial activity against schizont stage chloroquine-resistant Plasmodium falciparum INDO assessed as parasite killing for 6 to 9 hrs by stage specific inhibition assay relative to control
Format: functional
Parameters: scale not given: the % may be the effect or the level left
Details: time 6-9 hrs

SMILES | Activity [%]
C=C(c1ccc(Cl)cc1Cl)C1COC2(CCCC2)OO1 (configuration not stated) | 100

Tested on: Plasmodium falciparum
Assay: Resistance index, ratio of IC50 for antiplasmodial activity against artemisinin-resistant Plasmodium falciparum Cam 3.1 R539 to IC50 for antiplasmodial activity against chloroquine-resistant Plasmodium falciparum INDO
Format: functional
Details: not given

SMILES | Ratio IC50
C[C@@H]1CC[C@H]2[C@@H](C)C(=O)O[C@@H]3O[C@@]4(C)CC[C@@H]1[C@]32OO4 [ARTEMISININ] | 2.05
C=C(c1ccc(OC)c(F)c1)C1COC2(OO1)C1CC3CC(C1)CC2C3 (configuration not stated) | 8.95
C=C(c1ccc(Cl)cc1Cl)C1COC2(CCCC2)OO1 (configuration not stated) | 7.29

Tested on: Plasmodium falciparum
Assay: Antiplasmodial activity against ring stage chloroquine-resistant Plasmodium falciparum INDO assessed as ring stage parasite killing for 12 hrs by stage specific inhibition assay relative to control
Format: functional
Parameters: scale not given: the % may be the effect or the level left
Details: not given

SMILES | Activity [%]
C=C(c1ccc(OC)c(F)c1)C1COC2(OO1)C1CC3CC(C1)CC2C3 (configuration not stated) | 100
C=C(c1ccc(Cl)cc1Cl)C1COC2(CCCC2)OO1 (configuration not stated) | 100

Tested on: A549
Assay: Anticancer activity against human A549 cells assessed as cell growth inhibition measured for 72 hrs by MTT assay
Format: functional, cell-based
Details: A549, 72 h

SMILES | IC50 [µM]
C[C@@H]1CC[C@H]2[C@@H](C)C(=O)O[C@@H]3O[C@@]4(C)CC[C@@H]1[C@]32OO4 [ARTEMISININ] | 9.85
C=C(c1ccc(OC)c(F)c1)C1COC2(OO1)C1CC3CC(C1)CC2C3 (configuration not stated) | 48.2
C=C(c1ccc(Cl)cc1Cl)C1COC2(CCCC2)OO1 (configuration not stated) | 1.43

Tested on: not listed separately
Assay: Selectivity ratio of IC50 for anticancer activity against human L02 cells to IC50 for anticancer activity against human HepG2 cells
Format: toxicity, cell-based
Details: L02 cells versus HepG2 cells, read-out: Ratio IC50

SMILES | selectivity ratio
C[C@@H]1CC[C@H]2[C@@H](C)C(=O)O[C@@H]3O[C@@]4(C)CC[C@@H]1[C@]32OO4 [ARTEMISININ] | 2.01
C=C(c1ccc(OC)c(F)c1)C1COC2(OO1)C1CC3CC(C1)CC2C3 (configuration not stated) | 0.57
C=C(c1ccc(Cl)cc1Cl)C1COC2(CCCC2)OO1 (configuration not stated) | 0.2

Tested on: HepG2
Assay: Anticancer activity against human HepG2 cells assessed as cell growth inhibition measured for 72 hrs by MTT assay
Format: functional, cell-based
Details: HepG2, 72 h

SMILES | IC50 [µM]
C[C@@H]1CC[C@H]2[C@@H](C)C(=O)O[C@@H]3O[C@@]4(C)CC[C@@H]1[C@]32OO4 [ARTEMISININ] | 4.09
C=C(c1ccc(OC)c(F)c1)C1COC2(OO1)C1CC3CC(C1)CC2C3 (configuration not stated) | 32.1
C=C(c1ccc(Cl)cc1Cl)C1COC2(CCCC2)OO1 (configuration not stated) | 15.7

Tested on: Plasmodium falciparum
Assay: Antiplasmodial activity against trophozoite stage chloroquine-resistant Plasmodium falciparum INDO assessed as parasite killing for 0 to 4 hrs by stage specific inhibition assay relative to control
Format: functional
Parameters: scale not given: the % may be the effect or the level left
Details: time 0-4 hrs

SMILES | Activity [%]
C=C(c1ccc(OC)c(F)c1)C1COC2(OO1)C1CC3CC(C1)CC2C3 (configuration not stated) | 50
C=C(c1ccc(Cl)cc1Cl)C1COC2(CCCC2)OO1 (configuration not stated) | 25

Tested on: Plasmodium falciparum
Assay: Antiplasmodial activity against ring stage chloroquine resistant Plasmodium falciparum INDO assessed as percentage survival at 700 nM for 6 hrs by ring stage survival assay
Format: functional
Details: not given

SMILES | Activity [%]
C[C@@H]1CC[C@H]2[C@@H](C)C(=O)O[C@@H]3O[C@@]4(C)CC[C@@H]1[C@]32OO4 [ARTEMISININ] | 10
C=C(c1ccc(OC)c(F)c1)C1COC2(OO1)C1CC3CC(C1)CC2C3 (configuration not stated) | 100
C=C(c1ccc(Cl)cc1Cl)C1COC2(CCCC2)OO1 (configuration not stated) | 10

Tested on: not listed separately
Assay: Cytotoxicity against human HEK293 cells assessed as cell viability measured for 24 hrs by MTT assay
Format: cell-based
Details: not given

SMILES | CC50 at 24 h [µM]
C[C@@H]1CC[C@H]2[C@@H](C)C(=O)O[C@@H]3O[C@@]4(C)CC[C@@H]1[C@]32OO4 [ARTEMISININ] | > 26
C=C(c1ccc(OC)c(F)c1)C1COC2(OO1)C1CC3CC(C1)CC2C3 (configuration not stated) | 15.9
C=C(c1ccc(Cl)cc1Cl)C1COC2(CCCC2)OO1 (configuration not stated) | 12.1

Tested on: Plasmodium falciparum
Assay: Antiplasmodial activity against schizont stage chloroquine-resistant Plasmodium falciparum INDO assessed as parasite killing for 9 to 12 hrs by stage specific inhibition assay relative to contol
Format: functional
Parameters: scale not given: the % may be the effect or the level left
Details: time 9-12 hrs

SMILES | Activity [%]
C=C(c1ccc(Cl)cc1Cl)C1COC2(CCCC2)OO1 (configuration not stated) | 100
